Consider 1 compound from paper PMC7037732, “Synthesis of Combretastatin A-4 and 3′-Aminocombretastatin A-4 derivatives with Aminoacid Containing Pendants and Study of their Interaction with Tubulin and as Downregulators of the VEGF, hTERT and c-Myc Gene Expression” (Molecules, 2020).

Data set [1] deals with purified tubulin. In words: Critical concentration (CrC) for the assembly of purified tubulin in GAB. The class given is biochemical. Particulars: compound 27.5 μM, tubulin 25 μM, glycerol (GAB) and GTP assembly buffer; control 7.9 ± 1.2. The method, then: The effect on the self-assembly of tubulin was determined by measuring the critical concentration (CrC).
In data set [2] the test system is HT-29 (human colon adenocarcinoma). In words: Inhibition of cell proliferation (MTT), HT-29. The format is cell-based. The conditions noted are these: Homo sapiens, HT-29; Table 1; 48 h of treatment (footnote); average ±SD of three experiments.
Data set [3] deals with MCF-7 (breast adenocarcinoma). In words: Inhibition of cell proliferation (MTT), MCF-7. The class given is cell-based, human. The conditions noted are these: Homo sapiens, MCF7; Table 1; 48 h of treatment (footnote); average ±SD of three experiments.
Data set [4] relates to A-549 (human pulmonary adenocarcinoma). In words: Inhibition of cell proliferation (MTT), A-549. The format is cell-based. Particulars: Homo sapiens, A549, 48 h, Table 1; 48 h of treatment (footnote); average ±SD of three experiments. Summed up:
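Antiproliferative activity against A-549 human pulmonary adenocarcinoma cells was measured by MTT assay. Cells were seeded at 25,000/mL in 96-well plates, cultured 24 h, then exposed to compounds at various concentrations. MTT (20 µL, 5 mg·mL^−1) was added for 2 h at 37 °C, formazan dissolved in 200 µL DMSO, and absorbance read at 540 nm. IC50 values came graphically from three independent experiments.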

The test system of data set [5] is HEK-293 (human embryonic kidney cells). In words: Inhibition of cell proliferation (MTT), nontumor HEK-293. The class given is cell-based. The conditions noted are these: Homo sapiens, HEK293; Table 1; 48 h of treatment (footnote); average ±SD of three experiments.

Consider `COc1ccc(/C=C\c2cc(OC)c(OC)c(OC)c2)cc1OCC(=O)O` [Compound 2, (Z)-2-(2-Methoxy-5-(3,4,5-trimethoxystyryl)phenoxy)acetic acid], for which the melting point (in general, the temperature, or range, at which the solid turns liquid) was in the range of 109 to 111 °C. The “CrC (critical concentration)” value in data set [1] was 12.0 ± 0.7 µM. Moreover, half-maximal inhibition in data set [2] (IC50) was put at 33 ± 6 µM. Further, the midpoint of inhibition in data set [3], the IC50, lay at 11 ± 5 µM. In data set [4], half-maximal inhibition (IC50) required 38 ± 5 µM. Further, the concentration for half-maximal inhibition (IC50) – broadly, the concentration at which inhibition is half-maximal – in data set [5] amounted to 12 ± 5 µM.
